Laboratory results: patent publication US11203598B2, “Compounds for repressing cancer cell growth” (Institute For Cancer Research, priority 2018, dated 2021)

What was measured:
[1] = system: Noxa in 8226 bortezomib resistant multiple myeloma cell line; experiment: Western blot of Noxa; format: cell-based; settings: 25 μM Analog 4, 100 μM Analog 11
Experimental: Referring to FIG. 20 (panel C), 1×10^6 cells/well were seeded in a 12-well plate. 8226 parental and resistant multiple myeloma cell lines were treated with 100 μM CB002, 25 μM Analog 4, or 100 μM Analog 11.

[2] = system: WI38 normal cells; experiment: apoptosis assay, sub-G1 analysis (propidium iodide, flow cytometry); format: cell-based, human
Experimental: Apoptotic cells were quantified by sub-G1 analysis. Cells were seeded at a density of 2.5×10^5 to 5×10^5 in a 6-well plate and treated for 48-72 hours. After treatment, adherent cells were trypsinized and collected along with floating cells, washed with PBS and fixed in 70% ethanol. Cells were then incubated in a Phosphate-citric acid buffer (0.2 M Na2HPO4+0.1 M Citric Acid, pH 7.8) at room temperature for 5 minutes, spun down and resuspended for staining with 50 μg/mL propidium iodide (PI) in the presence of 250 μg/mL pancreatic ribonuclease (RNase A). Sub-G1 analyses were performed using an Epics Elite Epics flow cytometer (Coulter-Beckman).
Cells were seeded out at 1×10^6 cells/well on six well plates and treated with CB002 and Analog 11 at ranging doses with DMSO controls. Cells were harvested after 72 hours of treatment, all cells including floating cells were fixed with ethanol and stained with Propidium Iodide and then analyzed using Epics Elite flow cytometer to measure the DNA content of the stained cells.

[3] = system: autophagic vacuoles in DLD-1 cells; experiment: CYTO-ID autophagy detection kit; format: cell-based, human; settings: 50 μM, 24 hours, versus DMSO
[4] = system: cancer (DLD-1, SW480, and RXF393) cell lines; experiment: CellTiter-Glo cell viability, panel of cancer cell lines (summary); format: cell-based; settings: Homo sapiens; 72 hours
Experimental: Cells were seeded in 96-well plates at a density of 5×10^3 cells per well. 20 μL of CellTiter-Glo® Reagent was added directly to the wells, following the manufacturer's protocol, and bioluminescence signal was determined using an IVIS imaging system.
To begin establishing the potential of CB002 as a candidate therapeutic agent, its therapeutic index was determined by treating cancer (DLD-1, SW480, and RXF393) and normal (WI38 and MRC5) cell lines with concentrations of CB002 ranging from 0-500 μM for a period of 72 hours and assessing cell viability by the CellTiter-Glo® luminescence assay (see, FIG. 2). CB002 has a significant therapeutic index among the cells tested.

[5] = system: cell cycle G2 checkpoint; experiment: propidium iodide staining cell cycle analysis; format: cell-based; settings: 24 hour treatment, alone and with etoposide
Experimental: Referring to FIG. 22 (panels A-F), propidium iodide staining cell cycle analysis for 24 hour treatment with DMSO (panel A), CB002 (panel B), CB002 and etoposide (panel C), etoposide (panel D), caffeine (panel E), and caffeine and etoposixe (panel F). […] The deregulation of the G2 checkpoint as a mechanism by caffeine prevents […] tumor cells that are treated with DNA damaging drugs, such as etoposide, from arresting to have time to repair, and thus sensitizes cancer cells to cell death.

[6] = target: T1, R175H p53 mutant in HCT116 p53 R175H cells (Homo sapiens, UniProt P04637, R175H); experiment: Western blot of mutant p53; format: cell-based
T1 construct: V5 (only from the vector name pLenti6/V5); host or cells: HCT116 p53-/- cells, lentivirus infection, blasticidin-selected pooled clones
Experimental: HCT116 p53^−/− cells (previously obtained from the Vogelstein Laboratory, Johns Hopkins University) were infected with a lentivirus vector containing the p53 R175H mutant (pLenti6/V5-p53_R175H, Addgene). Cells were selected with blasticidin (8 μg/mL) containing media cultured for 10 days. Blasticidin-resistant clones (pooled clones) were screened for expression of the p53 R175H mutation by Western blot analysis with p53 DO-1 antibody.
After treatment, cells were harvested by trypsinization, washed with PBS, and lysed with RIPA buffer (Sigma-Aldrich) for 30 minutes to 1 hour at 4° C. Protein lysates were spun down and supernatant was collected. Protein quantification was performed using a Pierce™ BCA Protein Assay Kit (Thermo Fisher Scientific). 1×NuPAGE® LDS sample buffer (Thermo Fisher Scientific) and 2-Mercaptoethanol as the reducing agent (Sigma-Aldrich) were added to protein lysates, followed by boiling for 15 minutes at 95° C. Equal total protein amounts samples were loaded into NuPAGE™ Novex™ 4-12% Bis-Tris Protein Gels (1.5 mm, Thermo Fisher Scientific) and gel eletrophoresis was performed with NuPAGE™ MES SDS Running Buffer. Proteins were transferred onto an Immobilon-P membrane (PVDF, EMD Millipore) using a Bio-Rad system with a 10% Tris-Glycine and 10% methanol transfer buffer diluted in distilled and deionized water. After transfer, membranes were blocked with 10% milk in TBST solution and then incubated overnight with primary antibody, washed with TBST and incubated with secondary antibody for 1 hour. Incubations were performed in 5% milk in TBST solution. Signal was detected by using a chemiluminescent detection kit, followed by autoradiography. The following antibodies were used: p53 (DO-1, 1:1000, Santa Cruz), p73 (1:1000, Bethyl Laboratories), p21 and NOXA (1:250, EMD Millipore), DR5, FADD, cleaved caspase 3, cleaved caspase 8, cleaved PARP, and LC3B (1:1000, Cell Signaling), and β-actin (1:10000, Sigma).

[7] = system: SW480 NOXA stable knockdown cells; experiment: apoptosis assay, sub-G1 analysis; format: cell-based, human; settings: 96 μM, 48 hours, NOXA stably knocked down; DMSO 3.93%
Experimental: A NOXA shRNA plasmid construct was amplified according to the manufacturer's recommendation (TRC Lentiviral Human PMAIP1 shRNA, Dharmacon). Plasmid DNA was isolated using the PureLink® HiPure Plasmid Filter Maxiprep Kit (Invitrogen) according to the manufacturer's instructions. Lentivirus production was performed by transfecting HEK293T cells at a density of 8×10^6 cells per 10 cm dish with 1.6 μg pMD2.G envelope plasmid, 3.2 μg psPAX2 packaging vector, 3.2 μg plasmid DNA, and 24 μL of Lipofectamine® Transfection reagent 2000 (Life Technologies) in a total volume of reaction of 1 mL of antibiotic free DMEM media for a period of 6-10 hours. Media was then replaced with antibiotic free DMEM. Lentiviral particles were collected between 48-72 hours. SW480 cells ([…] in a 12-well plate) were infected 1:1 (virus containing media: antibiotic free DMEM media, total volume 1 mL) for a period of 24 hours. Then, media was replaced with DMEM complete media for an additional 24 hours. At this point, cells were split and seeded (20% confluent) for selection in a 10 cm dish with puromycin (2.5 μg/mL)-containing complete DMEM media and cultured for 10 days. Puromycin containing complete media was replaced every 2-3 days. Puromycin-resistant clones were screened for knockdown of NOXA by Western blot analysis with NOXA antibody.
Apoptotic cells were quantified by sub-G1 analysis. […]

SMILES | Noxa expression [1] | sub-G1 population ([2]; 96 μM, 48 hours, DMSO control 7.6%) [%] | sub-G1 fraction ([2]; 200 μM, 72 hours) | autophagic vacuole-specific staining [3] | IC50 [4] [µM] | effect on cell cycle G2 checkpoint [5] | R175H mutant p53 protein expression ([6]; 50 and 100 μM, 16 and 24 hours, versus DMSO) | R175H p53 mutant protein expression ([6]; 50 or 100 μM with MDM2 inhibitor Nutlin-3A, 24 hours) | R175H mutant p53 protein expression ([6]; co-treatment with chloroquine, 16 and 24 hours) | R175H mutant p53 protein expression ([6]; with proteasome inhibitor MG132 (5 and 10 μM), 24 hours) | sub-G1 content [7] [%]
Cn1c(=O)c2c(nc(Nc3ccccc3)n2C)n(C)c1=O [Analog 11, 8-anilino-1,3,7-trimethyl-3,7-dihydro-1Hpurine-2,6-dione] | able to induce Noxa expression |  |  |  |  |  |  |  |  |  | 
Cn1c(=O)c2[nH]c(Nc3ccccc3)nc2n(C)c1=O [CB002, 8-anilino-1,3-dimethyl-3,7-dihydro-1H-purine-2,6-dione] |  | 9.8 | relatively unchanged | increase in autophagic vacuole-specific staining | 96 to 400 | does not appear to deregulate the G2 cell cycle checkpoint | decrease in mutant p53 protein expression | still resulted in reduction of R175H p53 mutant protein expression | did not rescue R175H mutant p53 protein expression | appeared to rescue R175H mutant p53 protein expression | 3.7
